From article PMC8568133, “Evaluation of bisphenylthiazoles as a promising class for combating multidrug-resistant fungal infections” (PLoS ONE, 2021)
Values after ≈ are worked out from the molar mass of the structure shown. Where two headings read alike, the source gives them in different places.

Tests used:
MRSA USA300 = assay: Broth microdilution MIC, initial antibacterial screening; format: cell-based, S. aureus; settings: Staphylococcus aureus; MRSA USA300; read-out: MIC
Experimental: (§1) The minimum inhibitory concentrations (MICs) of the tested compounds and control drugs against clinically-relevant bacterial strains were determined using the broth microdilution method, according to guidelines outlined by the Clinical and Laboratory Standards Institute (CLSI), or as described previously.
(§2) Initial screening of the bisphenylthiazoles against Gram-positive and Gram-negative bacteria. Bacterial strains, (except C. difficile that was grown anaerobically on brain heart infusion supplemented agar at 37° C for 48 hours), were grown aerobically overnight on tryptone soy agar plates at 37° C. Afterwards, a bacterial solution equivalent to 0.5 McFarland standard was prepared and diluted in cation-adjusted Mueller-Hinton broth (CAMHB) (for S. aureus, and E. coli) to achieve a bacterial concentration of about 5 × 10^5 CFU/mL. C. difficile was diluted in brain heart infusion supplemented broth, supplemented with yeast extract, hemin and vitamin K to achieve a bacterial concentration of about 5 × 10^5 CFU/mL. Compounds and control drugs were added in the first row of the 96 -well plates, and serially diluted with the corresponding media containing bacteria. Plates were then, incubated aerobi cally at 37° C for 18-20 hours (for S. aureus and E. coli). C. difficile was incubated anaerobically at 37° C for 48 hours. […]
(§3) the visual growth of bacteria.

[1] = system: C. difficile ATCC BAA1870; assay: Broth microdilution MIC, initial antibacterial screening (anaerobic); format: cell-based, Clostridioides difficile; settings: Clostridioides difficile, ATCCBAA1870, read-out: MIC
Experimental: as §1, §2, §3

[2] = system: E. coli JW55031 (tolC-mutant); assay: microbe, parasite or virus in culture; format: cell-based, Escherichia coli; settings: Escherichia coli
Experimental: as §1, §2, §3

[3] = system: E. coli BW25113 (wild-type); assay: Broth microdilution MIC, initial antibacterial screening; format: cell-based, Escherichia coli; settings: Escherichia coli, read-out: MIC
Experimental: as §1, §2, §3

Candida albicans = assay: Antifungal broth microdilution MIC (50% growth inhibition) and MFC; format: cell-based; settings: Candida albicans, read-out: MIC
How it was run: (§4)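 Clinical isolates were tested in triplicate by CLSI broth microdilution over 128–0.06 μg/mL. MIC was the lowest concentration giving 50% growth inhibition after 35 °C incubation, 24 h for Candida, 48 h for Cryptococcus. For MFC, wells without growth were plated on YPD agar, 37 °C for 24 hours; MFC meant 99.9% growth reduction.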

Candida auris = assay: as above; format: cell-based; settings: Candidozyma auris, read-out: MIC
How it was run: as §4

Candida glabrata = assay: as above; format: cell-based; settings: Nakaseomyces glabratus, read-out: MIC
How it was run: (§5)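 CLSI broth microdilution, 128 to 0.06 μg/mL in triplicate, on clinical isolates; MIC is lowest concentration giving 50% growth inhibition after 24 h (Candida) or 48 h (Cryptococcus) at 35 °C. MFC: no-growth wells plated on YPD agar, 24 h at 37 °C, 99.9% reduction; three independent repeats.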

Candida krusei = assay: as above; format: cell-based; settings: Pichia kudriavzevii, read-out: MIC
How it was run: as §5

Candida tropicalis = assay: as above; format: cell-based; settings: Candida tropicalis, ATCC1369; C. tropicalis ATCC 1369; read-out: MIC
How it was run: as §5

[4] = system: Lactobacillus casei ATCC-334; assay: Broth microdilution MIC against normal human microbiota; format: cell-based; settings: Lacticaseibacillus casei, ATCC334; Lactobacillus casei ATCC-334; read-out: MIC
Experimental: (§6) Broth microdilution was utilized to determine the activity of bisphenylthiazoles against the human gut microflora as described elsewhere. A bacterial solution equivalent to 0.5 McFarland standards was prepared and diluted in MRS broth to achieve a bacterial concentration of approximately 5 x 10^5 CFU/mL. Then, compounds/control antifungals (in triplicates), were added to the plates and serially diluted with media containing bacteria. The plates were incubated for 48 hours at 37 °C before recording the MIC values. The experiment was repeated three independent times.

[5] = system: Lactobacillus crispatus HM-370; assay: as above; format: cell-based; settings: HM370; Lactobacillus crispatus HM-370; read-out: MIC
Experimental: as §6

[6] = system: Lactobacillus gasseri HM-400; assay: as above; format: cell-based; settings: HM400; Lactobacillus gasseri HM-400; read-out: MIC
Experimental: as §6

Cryptococcus gattii = assay: Antifungal broth microdilution MIC (50% growth inhibition, 48 h); format: cell-based; settings: Cryptococcus gattii, read-out: MIC
Experimental: (§7) Serial dilutions (from 128 μg/mL to 0.06 μg/mL) of the tested compounds and control drugs (fluconazole, itraconazole and amphotericin) (in triplicates), were screened against clinical isolates of Candida albicans, Candida auris, Candida glabrata, Candida parapsilosis, Candida tropicalis, Candida krusei, Cryptococcus neoformans, Cryptococcus gattii and Aspergillus fumigatus species using the broth microdilution method according to the Clinical and Laboratory Standards Institute guidelines. MICs were determined as the lowest concentration of the compounds that inhibited the fungal growth by 50% after incubation at 35 °C for 24 h (for Candida and Aspergillus), or 48 h (for Cryptococcus). The minimum fungicidal concentration (MFC) of these compounds was tested by plating 4 μL from wells with no growth onto YPD agar plates. The plates were incubated at 37 °C for 24 hours before recording the MFC, which was categorized as the lowest concentration that reduced fungal growth by 99.9% [45]. The experiment was repeated three independent times.

Cryptococcus neoformans = assay: as above; format: cell-based; settings: Cryptococcus neoformans, read-out: MIC
Experimental: as §7

Aspergillus fumigatus = assay: Antifungal broth microdilution MIC (50% growth inhibition); format: cell-based; settings: Aspergillus fumigatus, read-out: MIC
How it was run: as §4

Candida parapsilosis = assay: as above; format: cell-based; settings: Lodderomyces parapsilosis, read-out: MIC
How it was run: as §4

[7] = system: human colorectal cells (Caco-2); assay: In vitro cytotoxicity, MTS assay; settings: human, 24 h
Experimental: (§8) Fig 2 In vitro cytotoxicity assay of bisphenylthiazole compounds 7, 16 and 17 (tested in triplicates at 32, 64 and 128 μg/mL) against: A) human colorectal cells (Caco-2), and B) monkey kidney epithelial cells (Vero) after 24-hours exposure time, using the MTS 3-(4,5-dimethylthiazol-2-yl)-5-(3-carboxymethoxyphenyl)-2-(4-sulfophenyl)-2H-tetrazolium) assay. The data represent the percentage of viable Caco-2 or Vero cells measured as the average absorbance relative to DMSO after exposure to the tested compounds. Dimethyl sulfoxide (DMSO) was used as a negative control. Error bars represent the standard deviation values.
(§9) To explore the tolerability of bisphenylthiazoles, their cytotoxicity profile was assessed in human colorectal adenocarcinoma (Caco-2) and monkey kidney epithelial cells (Vero) as described earlier. Briefly, compounds were incubated with the cells for 24 hours. Then, cells were incubated with MTS reagent for 3 hours before measuring the absorbance values (OD490). The experiment was repeated in two independent times.

[8] = system: monkey kidney epithelial cells (Vero); assay: In vitro cytotoxicity, MTS assay; settings: Vero, 24 h exposure, MTS
Experimental: as §8, §9

[9] = GSH trap (reactive metabolite); format: in vitro ADME; settings: reactive metabolite formation

SMILES: Cc1nc(-c2ccc(-c3ccccc3)cc2)sc1-c1nnc(NCCN)o1 [Compound 7, N-{5-[2-((1,1’-Biphenyl)-4-yl)-4-methylthiazol-5-yl]-1,3,4-oxadiazol-2-yl}ethane-1,2-diamine]
- MIC (MRSA USA300): 32 mg/L (≈ 84.8 µM)
- MIC [1]: > 64 mg/L
- MIC [2]: 64 mg/L (≈ 170 µM)
- MIC [3]: > 64 mg/L
- MIC (Candida albicans; ATCC10231, C. albicans ATCC 10231): 8 mg/L (≈ 21.2 µM)
- MIC (Candida albicans; C. albicans NR-29448 (fluconazole-resistant)): 16 mg/L (≈ 42.4 µM)
- MIC (Candida albicans; C. albicans SS5314 (wild-type)): 4 mg/L (≈ 10.6 µM)
- MIC (Candida auris; C. auris 381): 8 mg/L (≈ 21.2 µM)
- MIC (Candida auris; C. auris 382): 8 mg/L (≈ 21.2 µM)
- MIC (Candida auris; C. auris 383): 2 mg/L (≈ 5.3 µM)
- MIC (Candida auris; C. auris 384): 4 mg/L (≈ 10.6 µM)
- MIC (Candida auris; C. auris 385): 4 mg/L (≈ 10.6 µM)
- MIC (Candida auris; C. auris 386): 8 mg/L (≈ 21.2 µM)
- MIC (Candida auris; C. auris 387): 8 mg/L (≈ 21.2 µM)
- MIC (Candida auris; C. auris 388): 4 mg/L (≈ 10.6 µM)
- MIC (Candida auris; C. auris 389): 8 mg/L (≈ 21.2 µM)
- MIC (Candida auris; C. auris 390): 2 mg/L (≈ 5.3 µM)
- MIC (Candida glabrata; ATCC66032, C. glabrata ATCC 66032): 2 mg/L (≈ 5.3 µM)
- MIC (Candida glabrata; C. glabrata ATCC MYA-2950): 1 mg/L (≈ 2.65 µM)
- MIC (Candida krusei; ATCC34135, C. krusei ATCC 34135): 2 mg/L (≈ 5.3 µM)
- MIC (Candida krusei; C. krusei CAB 396420): 2 mg/L (≈ 5.3 µM)
- MIC (Candida tropicalis): 8 mg/L (≈ 21.2 µM)
- MIC [4]: > 128 mg/L
- MIC [5]: > 128 mg/L
- MIC [6]: 64 mg/L (≈ 170 µM)
- MIC (Cryptococcus gattii; C. gattii NR 43209): 2 mg/L (≈ 5.3 µM)
- MIC (Cryptococcus gattii; C. gattii NR 43210): 2 mg/L (≈ 5.3 µM)
- MIC (Cryptococcus neoformans; C. neoformans NR 41298): 2 mg/L (≈ 5.3 µM)
- MIC (Cryptococcus neoformans; C. neoformans NR 41300): 4 mg/L (≈ 10.6 µM)
- MIC (Cryptococcus neoformans; C. neoformans NR 48770): 2 mg/L (≈ 5.3 µM)
- MIC (Aspergillus fumigatus; A. fumigatus NR 35303): 16 mg/L (≈ 42.4 µM)
- MIC (Aspergillus fumigatus; A. fumigatus NR 35304): 8 mg/L (≈ 21.2 µM)
- MIC (Candida parapsilosis; ATCC22019, C. parapsilosis ATCC 22019): 2 mg/L (≈ 5.3 µM)
- MIC (Candida parapsilosis; C. parapsilosis CAB 502638): 2 mg/L (≈ 5.3 µM)
- concentration up to which non-toxic [7]: ≤ 64 µg/mL
- concentration up to which non-toxic [8]: ≤ 64 µg/mL
- GSH trap [9]: -ve
- melting point: 145 to 146 °C
